Structures are written as SMILES.

For this experiment, the system named is Type 2-diabetes model mice KK-Ay/Ta Jc1. The experiment in a line: Study on hyperlipemia-ameliorating effects (plasma neutral fat, total cholesterol, free fatty acid, visceral fat, body weight). The class given is in vivo. The settings on record: for Body weight (average g/±SD) / Neutral fat level (average mg/dL ± SD) / Free fatty acid level (average mEq/L ± SD) / Total cholesterol level (average mg/dL ± SD) / Visceral fat level (average g ± SD): 0.05% by mass in feed CE2, 5 days; for Body weight (average g/±SD) / Neutral fat level (average mg/dL ± SD): overnight fast; for Body weight (average g/±SD): control group 52.3 ± 4.2; for cholesterol level-regulating effect compared with the control group / free fatty acid level-regulating effect compared with the control group / reduction in body weight compared with the control group / reduction in the visceral fat level compared with the control group / neutral fat level-regulating effect compared with the control group: in words, 0.05% (aglycons) or 1.0% by mass (products) in feed, 5 days; for neutral fat level-regulating effect compared with the control group: Dunnett's test; for Neutral fat level (average mg/dL ± SD) / Free fatty acid level (average mEq/L ± SD) / Total cholesterol level (average mg/dL ± SD): plasma; for Neutral fat level (average mg/dL ± SD): control group 407.3 ± 20.9; for Free fatty acid level (average mEq/L ± SD): control group 1.95 ± 0.3; for Total cholesterol level (average mg/dL ± SD): control group 195.5 ± 10.7; for Visceral fat level (average g ± SD): retroperitoneal + epididymal + perirenal fat, control group 8.2 ± 1.0. The text has this:
Protopanaxatriol (PPT) (product of Funakoshi Corporation), panaxatriol (PT) (product of Funakoshi Corporation), protopanaxadiol (PPD) (product of Funakoshi Corporation) and panaxadiol (PD) (product of Funakoshi Corporation) were each added to feed CE2 (product of CLEA Japan, Inc.) so that the concentration thereof was 0.05% by mass.
Similarly, the strong acid-treated Panax notoginseng product (Production Example 1) and Panax notoginseng powder (product of MATSUURA YAKUGYO CO., LTD.) were each added to feed CE2 (product of CLEA Japan, Inc.) so that the concentration thereof was 1.0% by mass.
Feed CE2 (product of CLEA Japan, Inc.) containing no other additives was used as feed for the control group.
Type 2-diabetes model mice KK-Ay/Ta Jc1 (male, 4 weeks old, 8 mice/group, product of CLEA Japan, Inc.) were preliminarily bred for 7 days. Thereafter, they were bred for 5 days with the above-prepared feed CE2, containing no other additives or containing PPT, PT, PPD, PD, the strong acid-treated Panax notoginseng product or Panax notoginseng powder.
The mice bred for 5 days in the above-described manner were measured for the body weight after an overnight fast. The blood was collected from them. The collected blood sample was used to measure the plasma neutral-fat level with […] (product of Wako Pure Chemical Industries, Ltd.), the plasma total-cholesterol level with CHOLESTEROL E-TEST WAKO (product of Wako Pure Chemical Industries, Ltd.) and the plasma free-fatty-acid level with […] (product of Wako Pure Chemical Industries, Ltd.). In addition, retroperitoneal fat, fat surrounding the epididymis, and fat surrounding the kidney were sampled and weighed. The total mass thereof was used as the visceral fat level. The above-measured plasma neutral-fat level, plasma total-cholesterol level, plasma free-fatty-acid level, visceral fat level and body weight were verified using the Dunnett's multiple test. A p value of 0.05 or lower was considered statistically significant.

As for `CC(C)=CCCC(C)(O)[C@H]1CC[C@]2(C)[C@@H]1[C@H](O)C[C@@H]1[C@@]3(C)CC[C@H](O)C(C)(C)[C@@H]3CC[C@]12C` (stereo in doubt) [PPD, protopanaxadiol], the “Body weight (average g/±SD)” value was 46.8 ± 2.6 g, the “cholesterol level-regulating effect compared with the control group” value is “significantly superior to that of the control group”, the “free fatty acid level-regulating effect compared with the control group” value is reported as “significantly superior to that of the control group” and the “reduction in body weight compared with the control group” value (from here on “reduction in body weight”) is reported as “significant reduction in body weight”. For the same compound, the “reduction in the visceral fat level compared with the control group” value (“reduction in the visceral fat level” below) is “significant reduction in the visceral fat level”, the “neutral fat level-regulating effect compared with the control group” value is “significantly superior to that of the control group”, the “Neutral fat level (average mg/dL ± SD)” value is on record as 151.4 ± 26.9 mg/dL and the “Free fatty acid level (average mEq/L ± SD)” value is given as 0.81 ± 0.08 mEq/L. Also, the “Total cholesterol level (average mg/dL ± SD)” value was determined as 123.2 ± 19.6 mg/dL and the “Visceral fat level (average g ± SD)” value was 5.9 ± 1.3 g.
`CC1(C)CCC[C@](C)([C@H]2CC[C@]3(C)[C@@H]2[C@H](O)C[C@@H]2[C@@]4(C)CC[C@H](O)C(C)(C)[C@@H]4CC[C@]23C)O1` [PD, panaxadiol]: the “Body weight (average g/±SD)” value turned out to be 47.3 ± 1.9 g, the “cholesterol level-regulating effect compared with the control group” value was “significantly superior to that of the control group”, the “free fatty acid level-regulating effect compared with the control group” value was “significantly superior to that of the control group” and the “reduction in body weight” value was “significant reduction in body weight”. Moreover, the “reduction in the visceral fat level” value is recorded as “significant reduction in the visceral fat level”, the “neutral fat level-regulating effect compared with the control group” value was “significantly superior to that of the control group”, the “Neutral fat level (average mg/dL ± SD)” value came out at 180.7 ± 34.2 mg/dL and the “Free fatty acid level (average mEq/L ± SD)” value turned out to be 1.04 ± 0.12 mEq/L. Besides, the “Total cholesterol level (average mg/dL ± SD)” value amounted to 101.5 ± 15.6 mg/dL and the “Visceral fat level (average g ± SD)” value turned out to be 5.5 ± 1.6 g.
`CC(C)=CCC[C@](C)(O)[C@H]1CC[C@]2(C)[C@@H]1[C@H](O)C[C@@H]1[C@@]3(C)CC[C@H](O)C(C)(C)[C@@H]3[C@@H](O)C[C@]12C` [PPT, Protopanaxatriol]: the “Body weight (average g/±SD)” value is recorded as 45.3 ± 2.2 g, the “cholesterol level-regulating effect compared with the control group” value is “significantly superior to that of the control group”, the “free fatty acid level-regulating effect compared with the control group” value is “significantly superior to that of the control group” and the “reduction in body weight” value is given as “significant reduction in body weight”. Besides, the “reduction in the visceral fat level” value is “significant reduction in the visceral fat level”, the “neutral fat level-regulating effect compared with the control group” value was “significantly superior to that of the control group”, the “Neutral fat level (average mg/dL ± SD)” value amounted to 138.5 ± 25.3 mg/dL and the “Free fatty acid level (average mEq/L ± SD)” value is on record as 0.93 ± 0.08 mEq/L. In addition, the “Total cholesterol level (average mg/dL ± SD)” value stood at 128.3 ± 17.8 mg/dL and the “Visceral fat level (average g ± SD)” value amounted to 5.5 ± 1.3 g.
`CC1(C)CCC[C@](C)([C@H]2CC[C@]3(C)[C@@H]2[C@H](O)C[C@@H]2[C@@]4(C)CC[C@H](O)C(C)(C)[C@@H]4[C@@H](O)C[C@]23C)O1` [PT, panaxatriol]: the “Body weight (average g/±SD)” value amounted to 43.9 ± 2.8 g, the “cholesterol level-regulating effect compared with the control group” value is given as “significantly superior to that of the control group”, the “free fatty acid level-regulating effect compared with the control group” value was “significantly superior to that of the control group” and the “reduction in body weight” value is listed as “significant reduction in body weight”. The “reduction in the visceral fat level” value is listed as “significant reduction in the visceral fat level”, the “neutral fat level-regulating effect compared with the control group” value is given as “significantly superior to that of the control group”, the “Neutral fat level (average mg/dL ± SD)” value came to 163 ± 32.8 mg/dL and the “Free fatty acid level (average mEq/L ± SD)” value amounted to 0.84 ± 0.07 mEq/L. Further, the “Total cholesterol level (average mg/dL ± SD)” value was determined as 102.9 ± 16.7 mg/dL.

(Values after patent US8927033B2, “Hyperlipemia-ameliorating agent, anemia-ameliorating composition, uric-acid-level-reducing composition, and food or beverage” (Lion Corporation, priority 2009, dated 2015).)
